Like-named read-outs stand apart in the source and are kept apart here.
Legend:
Test in all cases: Kinase inhibitory activity profiling of RI-962@10 µM (406 kinases, Eurofins)
Type in all cases: biochemical
[1] = target: panel of human kinases (kinase named in endpoint) (Homo sapiens, UniProt O14965); details: 10 µM; read-out: Activity (%), Aurora-A(h)
Summary of the method: (§1)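 Radiometric filter-binding kinase assays: enzyme preincubated 15 min with compound in 8 mM MOPS pH 7.0, 0.2 mM EDTA, 250 μM peptide substrate, 10 mM magnesium acetate, 10 μM [γ-33P]-ATP. Reaction started with Mg/ATP, run 40 min at room temperature, stopped with phosphoric acid; 33P incorporation read by scintillation counting. Other kinases by similar protocols.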

[2] = target: panel of human kinases (kinase named in endpoint) (Homo sapiens, UniProt P00519, Y253F); details: 10 µM; read-out: Activity (%), Abl(Y253F)(h)
Summary of the method: as §1

[3] = target: panel of human kinases (kinase named in endpoint) (Homo sapiens, UniProt P00533, L861Q); details: 10 µM; read-out: Activity (%), EGFR(L861Q)(h)
Summary of the method: as §1

[4] = target: panel of human kinases (kinase named in endpoint) (Homo sapiens, UniProt P06213); details: 10 µM
Summary of the method: as §1

[5] = target: panel of human kinases (kinase named in endpoint) (Homo sapiens, UniProt P11362, V561M); details: 10 µM; read-out: Activity (%), FGFR1(V561M)(h)
Summary of the method: as §1

[6] = target: panel of human kinases (kinase named in endpoint) (Homo sapiens, UniProt P29376); details: 10 µM; read-out: Activity (%), LTK(h)
Summary of the method: as §1

[7] = target: panel of human kinases (kinase named in endpoint) (Homo sapiens, UniProt P30291); details: 10 µM; read-out: Activity (%), Wee1(h)
Summary of the method: as §1

[8] = target: panel of human kinases (kinase named in endpoint) (Homo sapiens, UniProt P31751); details: 10 µM; read-out: Activity (%), PKBβ(h)
Summary of the method: as §1

[9] = target: panel of human kinases (kinase named in endpoint) (Homo sapiens, UniProt P35916); details: 10 µM; read-out: Activity (%), Flt4(h)
Summary of the method: as §1

[10] = target: panel of human kinases (kinase named in endpoint) (Homo sapiens, UniProt P42345); details: 10 µM
Summary of the method: as §1

[11] = target: panel of human kinases (kinase named in endpoint) (Homo sapiens, UniProt P49841); details: 10 µM; read-out: Activity (%), GSK3β(h)
Summary of the method: as §1

[12] = target: panel of human kinases (kinase named in endpoint) (Homo sapiens, UniProt P51451); details: 10 µM; read-out: Activity (%), Blk(h)
Summary of the method: as §1

[13] = target: panel of human kinases (kinase named in endpoint) (Homo sapiens, UniProt P54762); details: 10 µM; read-out: Activity (%), EphB1(h)
Summary of the method: as §1

[14] = target: panel of human kinases (kinase named in endpoint) (Homo sapiens, UniProt P57059); details: 10 µM; read-out: Activity (%), SIK(h)
Summary of the method: as §1

[15] = target: panel of human kinases (kinase named in endpoint) (Homo sapiens, UniProt Q06187, R28H); details: 10 µM; read-out: Activity (%), BTK(R28H)(h)
Summary of the method: as §1

[16] = target: panel of human kinases (kinase named in endpoint) (Homo sapiens, UniProt Q13464); details: 10 µM; read-out: Activity (%), ROCK-I(h)
Summary of the method: as §1

[17] = target: panel of human kinases (kinase named in endpoint) (Homo sapiens, UniProt Q15375); details: 10 µM; read-out: Activity (%), EphA7(h)
Summary of the method: as §1

[18] = target: panel of human kinases (kinase named in endpoint) (Homo sapiens, UniProt Q16539); details: 10 µM; read-out: Activity (%), SAPK2a(h)
Summary of the method: as §1

[19] = target: panel of human kinases (kinase named in endpoint) (Homo sapiens, UniProt Q86V86); details: 10 µM; read-out: Activity (%), Pim-3(h)
Summary of the method: as §1

[20] = target: panel of human kinases (kinase named in endpoint) (Homo sapiens, UniProt Q8IYT8); details: 10 µM; read-out: Activity (%), ULK2(h)
Summary of the method: as §1

[21] = target: panel of human kinases (kinase named in endpoint) (Homo sapiens, UniProt Q8N5S9); details: 10 µM; read-out: Activity (%), CaMKK1(h)
Summary of the method: as §1

[22] = target: panel of human kinases (kinase named in endpoint) (Homo sapiens, UniProt Q92630); details: 10 µM; read-out: Activity (%), DYRK2(h)
Summary of the method: as §1

[23] = target: panel of human kinases (kinase named in endpoint) (Homo sapiens, UniProt Q96PF2); details: 10 µM; read-out: Activity (%), TSSK2(h)
Summary of the method: as §1

[24] = target: panel of human kinases (kinase named in endpoint) (Homo sapiens, UniProt Q96PN8); details: 10 µM; read-out: Activity (%), TSSK3(h)
Summary of the method: as §1

[25] = target: panel of human kinases (kinase named in endpoint) (Homo sapiens, UniProt Q9H2X6); details: 10 µM; read-out: Activity (%), HIPK2(h)
Summary of the method: as §1

panel of human kinases (kinase named in endpoint) (Homo sapiens, UniProt P06213), sequence (P06213 28-1382): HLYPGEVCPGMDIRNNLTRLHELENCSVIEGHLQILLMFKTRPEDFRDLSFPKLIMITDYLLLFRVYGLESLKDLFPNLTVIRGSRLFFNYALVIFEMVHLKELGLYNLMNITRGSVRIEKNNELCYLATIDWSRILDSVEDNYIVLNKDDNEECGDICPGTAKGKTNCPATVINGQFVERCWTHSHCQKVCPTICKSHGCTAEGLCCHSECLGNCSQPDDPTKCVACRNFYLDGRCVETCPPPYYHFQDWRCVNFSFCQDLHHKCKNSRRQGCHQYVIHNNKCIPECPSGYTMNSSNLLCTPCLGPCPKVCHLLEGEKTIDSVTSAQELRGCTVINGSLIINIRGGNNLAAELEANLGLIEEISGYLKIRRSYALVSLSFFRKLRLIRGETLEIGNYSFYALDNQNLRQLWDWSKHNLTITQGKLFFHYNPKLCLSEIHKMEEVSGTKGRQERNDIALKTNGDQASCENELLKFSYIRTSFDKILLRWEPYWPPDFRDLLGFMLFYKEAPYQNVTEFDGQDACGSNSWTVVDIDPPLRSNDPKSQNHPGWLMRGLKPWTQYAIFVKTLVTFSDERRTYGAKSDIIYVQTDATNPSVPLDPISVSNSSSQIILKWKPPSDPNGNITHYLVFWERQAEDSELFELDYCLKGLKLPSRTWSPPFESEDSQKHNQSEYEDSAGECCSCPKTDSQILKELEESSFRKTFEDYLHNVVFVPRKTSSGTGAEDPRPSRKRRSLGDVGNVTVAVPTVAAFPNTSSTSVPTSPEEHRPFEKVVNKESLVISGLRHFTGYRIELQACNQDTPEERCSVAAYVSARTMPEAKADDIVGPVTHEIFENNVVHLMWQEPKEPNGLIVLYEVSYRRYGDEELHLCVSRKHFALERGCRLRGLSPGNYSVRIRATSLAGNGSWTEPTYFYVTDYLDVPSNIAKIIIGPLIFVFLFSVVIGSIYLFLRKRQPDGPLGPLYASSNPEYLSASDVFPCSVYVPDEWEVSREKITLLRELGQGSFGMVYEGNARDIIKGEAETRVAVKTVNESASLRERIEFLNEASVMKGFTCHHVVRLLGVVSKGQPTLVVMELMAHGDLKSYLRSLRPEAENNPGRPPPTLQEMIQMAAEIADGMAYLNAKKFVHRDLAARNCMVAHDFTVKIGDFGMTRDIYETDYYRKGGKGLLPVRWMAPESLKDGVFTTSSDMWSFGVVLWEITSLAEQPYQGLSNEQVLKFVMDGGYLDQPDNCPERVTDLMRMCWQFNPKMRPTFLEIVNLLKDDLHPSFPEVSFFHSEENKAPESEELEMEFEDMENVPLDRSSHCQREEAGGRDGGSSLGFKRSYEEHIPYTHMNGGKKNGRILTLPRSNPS
panel of human kinases (kinase named in endpoint) (Homo sapiens, UniProt Q92630), sequence (Q92630 whole entry): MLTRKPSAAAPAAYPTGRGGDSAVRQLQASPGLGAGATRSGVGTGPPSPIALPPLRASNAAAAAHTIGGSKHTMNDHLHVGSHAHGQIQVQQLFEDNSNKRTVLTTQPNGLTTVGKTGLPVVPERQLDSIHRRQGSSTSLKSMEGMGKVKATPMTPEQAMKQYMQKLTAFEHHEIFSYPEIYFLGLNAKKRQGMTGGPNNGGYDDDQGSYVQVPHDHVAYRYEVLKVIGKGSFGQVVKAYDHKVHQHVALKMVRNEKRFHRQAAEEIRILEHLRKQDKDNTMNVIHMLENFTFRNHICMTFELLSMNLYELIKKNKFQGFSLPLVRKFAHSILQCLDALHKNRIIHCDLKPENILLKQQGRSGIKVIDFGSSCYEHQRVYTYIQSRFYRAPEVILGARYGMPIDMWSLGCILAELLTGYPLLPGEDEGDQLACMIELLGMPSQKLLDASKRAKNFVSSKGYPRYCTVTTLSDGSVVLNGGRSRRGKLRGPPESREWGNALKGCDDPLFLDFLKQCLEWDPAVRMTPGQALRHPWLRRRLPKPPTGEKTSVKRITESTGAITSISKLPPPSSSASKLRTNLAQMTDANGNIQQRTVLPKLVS
panel of human kinases (kinase named in endpoint) (Homo sapiens, UniProt Q15375), sequence (Q15375 28-998): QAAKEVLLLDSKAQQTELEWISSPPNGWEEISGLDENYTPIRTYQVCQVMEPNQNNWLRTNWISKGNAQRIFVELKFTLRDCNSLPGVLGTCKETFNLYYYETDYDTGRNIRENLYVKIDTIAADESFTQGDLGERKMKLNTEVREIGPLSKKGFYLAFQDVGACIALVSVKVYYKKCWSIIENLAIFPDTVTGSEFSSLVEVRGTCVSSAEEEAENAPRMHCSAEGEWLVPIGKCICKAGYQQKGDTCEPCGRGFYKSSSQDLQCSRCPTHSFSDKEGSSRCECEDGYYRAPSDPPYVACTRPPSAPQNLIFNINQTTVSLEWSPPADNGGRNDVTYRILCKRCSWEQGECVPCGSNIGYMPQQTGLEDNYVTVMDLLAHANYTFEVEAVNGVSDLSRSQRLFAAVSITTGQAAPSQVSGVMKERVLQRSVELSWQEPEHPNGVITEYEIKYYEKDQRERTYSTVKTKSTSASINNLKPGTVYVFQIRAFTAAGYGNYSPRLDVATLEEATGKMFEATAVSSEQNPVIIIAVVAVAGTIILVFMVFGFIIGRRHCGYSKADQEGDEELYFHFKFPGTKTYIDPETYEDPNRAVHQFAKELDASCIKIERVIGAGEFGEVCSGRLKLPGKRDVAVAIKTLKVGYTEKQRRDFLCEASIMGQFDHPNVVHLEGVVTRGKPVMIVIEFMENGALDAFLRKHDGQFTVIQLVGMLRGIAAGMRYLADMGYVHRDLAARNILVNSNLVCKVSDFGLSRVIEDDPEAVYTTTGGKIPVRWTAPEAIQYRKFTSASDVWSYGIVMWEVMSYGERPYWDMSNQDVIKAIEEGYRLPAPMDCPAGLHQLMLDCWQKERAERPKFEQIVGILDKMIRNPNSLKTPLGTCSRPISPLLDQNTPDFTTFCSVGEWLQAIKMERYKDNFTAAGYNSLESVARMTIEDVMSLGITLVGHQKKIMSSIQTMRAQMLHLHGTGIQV
panel of human kinases (kinase named in endpoint) (Homo sapiens, UniProt P35916), sequence (P35916 25-1363): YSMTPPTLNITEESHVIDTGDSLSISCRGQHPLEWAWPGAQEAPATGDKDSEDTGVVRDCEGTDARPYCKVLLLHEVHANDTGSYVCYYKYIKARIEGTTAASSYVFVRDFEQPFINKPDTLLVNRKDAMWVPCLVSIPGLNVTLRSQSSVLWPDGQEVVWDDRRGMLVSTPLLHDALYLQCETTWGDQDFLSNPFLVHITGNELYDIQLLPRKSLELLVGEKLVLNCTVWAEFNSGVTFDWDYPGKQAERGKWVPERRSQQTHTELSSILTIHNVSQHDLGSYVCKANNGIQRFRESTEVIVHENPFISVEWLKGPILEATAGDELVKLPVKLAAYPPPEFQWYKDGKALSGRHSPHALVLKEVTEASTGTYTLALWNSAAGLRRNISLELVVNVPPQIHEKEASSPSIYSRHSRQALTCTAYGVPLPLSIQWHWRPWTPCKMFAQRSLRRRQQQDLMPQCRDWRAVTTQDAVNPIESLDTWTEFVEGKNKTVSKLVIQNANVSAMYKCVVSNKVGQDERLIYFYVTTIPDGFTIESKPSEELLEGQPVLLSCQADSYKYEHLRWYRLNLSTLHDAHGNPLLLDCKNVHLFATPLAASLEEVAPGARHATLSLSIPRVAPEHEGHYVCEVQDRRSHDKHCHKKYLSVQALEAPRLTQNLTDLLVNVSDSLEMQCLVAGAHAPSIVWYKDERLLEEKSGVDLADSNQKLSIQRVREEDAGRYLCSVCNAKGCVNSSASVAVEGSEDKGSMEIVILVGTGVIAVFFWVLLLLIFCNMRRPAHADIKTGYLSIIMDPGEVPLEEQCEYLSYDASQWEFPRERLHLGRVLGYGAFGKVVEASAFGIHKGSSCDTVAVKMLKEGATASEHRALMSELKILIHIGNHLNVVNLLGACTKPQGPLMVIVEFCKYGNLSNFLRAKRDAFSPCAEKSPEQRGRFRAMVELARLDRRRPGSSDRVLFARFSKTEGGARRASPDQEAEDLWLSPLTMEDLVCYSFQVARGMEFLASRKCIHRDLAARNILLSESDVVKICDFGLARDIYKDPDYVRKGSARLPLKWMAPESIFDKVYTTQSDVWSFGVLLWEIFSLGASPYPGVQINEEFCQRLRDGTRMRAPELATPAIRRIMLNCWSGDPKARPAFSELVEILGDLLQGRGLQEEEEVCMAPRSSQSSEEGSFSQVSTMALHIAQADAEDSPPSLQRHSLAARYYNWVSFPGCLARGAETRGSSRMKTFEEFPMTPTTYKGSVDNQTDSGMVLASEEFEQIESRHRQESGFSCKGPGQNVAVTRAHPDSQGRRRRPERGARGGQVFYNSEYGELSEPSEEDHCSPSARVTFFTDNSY
panel of human kinases (kinase named in endpoint) (Homo sapiens, UniProt P49841), sequence (P49841 whole entry): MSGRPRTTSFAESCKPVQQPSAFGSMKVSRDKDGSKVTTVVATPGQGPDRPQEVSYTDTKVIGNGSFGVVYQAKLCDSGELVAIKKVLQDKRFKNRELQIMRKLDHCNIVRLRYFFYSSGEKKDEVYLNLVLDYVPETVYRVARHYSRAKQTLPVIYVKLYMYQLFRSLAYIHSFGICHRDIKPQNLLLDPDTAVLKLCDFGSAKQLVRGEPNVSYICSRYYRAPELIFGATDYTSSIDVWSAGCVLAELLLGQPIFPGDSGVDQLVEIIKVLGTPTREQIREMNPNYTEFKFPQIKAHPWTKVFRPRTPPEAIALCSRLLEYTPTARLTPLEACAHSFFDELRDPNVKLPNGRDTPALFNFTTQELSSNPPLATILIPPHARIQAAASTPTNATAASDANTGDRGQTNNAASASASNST
panel of human kinases (kinase named in endpoint) (Homo sapiens, UniProt Q96PF2), sequence (Q96PF2 whole entry): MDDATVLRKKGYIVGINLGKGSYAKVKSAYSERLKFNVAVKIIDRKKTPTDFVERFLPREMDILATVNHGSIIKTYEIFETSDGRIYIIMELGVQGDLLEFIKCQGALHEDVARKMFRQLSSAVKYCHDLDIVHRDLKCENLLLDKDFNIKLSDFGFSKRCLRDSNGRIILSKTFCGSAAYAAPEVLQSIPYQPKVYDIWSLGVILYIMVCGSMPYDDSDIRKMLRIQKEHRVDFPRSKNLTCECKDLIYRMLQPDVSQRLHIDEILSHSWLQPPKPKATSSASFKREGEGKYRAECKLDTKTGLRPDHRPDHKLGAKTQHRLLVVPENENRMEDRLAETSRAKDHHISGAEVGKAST

`CC(C)C(=O)Nc1nc2cc(-c3ccc4c(c3)c(C(=O)NC(C)c3ccccc3)cn4C)ccn2n1` (stereo not drawn) [RI-962] was tested. Which activity at 10 µM [1] did it give?
Its activity at 10 µM is 95%.

What about the activity at 10 µM [2] of the same compound?
The activity at 10 µM was 102%.

And the activity at 10 µM [3]?
The activity at 10 µM was 82%.

What about the activity at 10 µM ([4]; read-out: Activity (%), IR(h)) of the same compound?
The activity at 10 µM was 103%.

What about the activity at 10 µM ([4]; read-out: Activity (%), IR(h), activated) of the same compound?
Its activity at 10 µM is 89%.

And the activity at 10 µM [5]?
The activity at 10 µM was 99%.

And the activity at 10 µM [6]?
Its activity at 10 µM is 100%.

What about the activity at 10 µM [7] of the same compound?
The activity at 10 µM was 92%.

And the activity at 10 µM [8]?
Its activity at 10 µM is 92%.

What about the activity at 10 µM [9] of the same compound?
The activity at 10 µM was 86%.

And the activity at 10 µM ([10]; read-out: Activity (%), mTOR(h))?
The activity at 10 µM was 87%.

And the activity at 10 µM ([10]; read-out: Activity (%), mTOR/FKBP12(h))?
Its activity at 10 µM is 98%.

And the activity at 10 µM [11]?
Its activity at 10 µM is 111%.

And the activity at 10 µM [12]?
The activity at 10 µM was 96%.

What about the activity at 10 µM [13] of the same compound?
The activity at 10 µM was 111%.

And the activity at 10 µM [14]?
Its activity at 10 µM is 137%.

What about the activity at 10 µM [15] of the same compound?
The activity at 10 µM was 105%.

What about the activity at 10 µM [16] of the same compound?
The activity at 10 µM was 99%.

What about the activity at 10 µM [17] of the same compound?
The activity at 10 µM was 100%.

And the activity at 10 µM [18]?
Its activity at 10 µM is 118%.

And the activity at 10 µM [19]?
The activity at 10 µM was 111%.

And the activity at 10 µM [20]?
Its activity at 10 µM is 89%.

What about the activity at 10 µM [21] of the same compound?
Its activity at 10 µM is 56%.

What about the activity at 10 µM [22] of the same compound?
Its activity at 10 µM is 92%.

What about the activity at 10 µM [23] of the same compound?
The activity at 10 µM was 76%.

What about the activity at 10 µM [24] of the same compound?
The activity at 10 µM was 94%.

And the activity at 10 µM [25]?
The activity at 10 µM was 72%.

Source: paper PMC9653409, “Generative deep learning enables the discovery of a potent and selective RIPK1 inhibitor” (Nature Communications, 2022)
